Results taken from patent publication US12534438B2, “Cannabinoid derivative as a pharmaceutically active compound and method of preparation thereof” (priority 2020, dated 2026).
Where two headings read alike, the source gives them in different places.

Legend:
[1] = test system: mouse model of generalised seizure (tonic hind limb extensor convulsions); test: Maximal electroshock seizure threshold (MEST) test in the mouse; conditions: 30 min post dose
Experimental: The efficacy of the cannabinoid derivative according to formula (I) was tested in a mouse model of generalised seizure, the maximal electroshock seizure threshold (MEST) test.
The maximal electroshock seizure threshold (MEST) test is widely utilized preclinically to evaluate pro- or anti-convulsant properties of test compounds (Loscher et al., 1991).
In the MEST test the ability of a drug to alter the seizure threshold current required to induce hind limb tonic extensor convulsions is measured according to an “up and down” method of shock titration (Kimball et al., 1957). An increase in seizure threshold is indicative of anti-convulsant effect.
The ability of a test compound to alter the stimulus intensity, expressed as current (mA), required to induce the presence of tonic hind limb extensor convulsions, is assessed in the MEST.
Naïve mice were acclimatised to the procedure room in their home cages for up to 7 days, with food and water available ad libitum.
All animals were weighed at the beginning of the study and randomly assigned to treatment groups based on a mean distribution of body weight across groups.
The first animal within a treatment group was given a shock at the expected or estimated CC50 current. For subsequent animals, the current was lowered or raised depending on the convulsions outcome from the preceding animal, in intervals of 5 mA.
Data generated from each treatment group were used to calculate the CC50±SEM values for the treatment group.
Vehicle: (5% ethanol, 10% solutol, 85% Saline) was prepared as follows: 1 mL of ethanol, 2 mL of solutol were warmed to 60° C., in 17 mL of saline (1:2:17).
The test compound, described herein as compound 1, is as shown as formula (I). Test compound was administered at 2, 20 and 200 mg/kg (i.p.) in a 1:2:17 ethanol:solutol:0.9% saline formulation.
The data for each treatment group were recorded as the number of +'s and 0's at each current level employed and this information is then used to calculate the CC50 value (current required for 50% of the animals to show seizure behaviour)±standard error.
Test compound effects were also calculated as percentage change in CC50 from the vehicle control group.
Significant difference between drug-treated animals and controls were assessed according to Litchfield and Wilcoxon (1949).

[2] = Plasma pharmacokinetics following oral dose administration to male Wistar Han rats; assay type: in vivo; conditions: rat, oral gavage; for half-life / AUC(0-inf) / AUC(0-t) / Cmax / Tmax: plasma
Experimental: The plasma pharmacokinetics of compound 1 was assessed following oral dose administration to male Wistar Han Rats.
The Wistar Han Rat was chosen as the animal model for this study as it is an accepted rodent species for preclinical toxicity testing by regulatory agencies. Animals were socially housed (up to 3 animals of the same group) in polycarbonate cages containing appropriate bedding equipped with water bottles and may be provided with items such as devices for hiding in, paper and/or objects for chewing, unless contraindicated by study procedures. Pelleted rodent diet were provided ad libitum throughout the study, except during designated procedures.
The 9 male animals were 8 to 10 weeks old at initiation of dosing.
Vehicle: 1% Ethanol/12% Kolliphor HS-15/87% Saline (w/w/v).
Dose formulation was prepared as follows: test item was dissolved in ethanol. Kolliphor HS-15 and saline was heated separately to 60° C., and the required amount of heated Kolliphor HS-15 added to the test item/ethanol solution. The mixture was stirred at until homogenous. Hot saline was added to the mixture to meet dose level requirements, and stirred at 60° C. until a homogenous solution. Prior to release, the formulations were allowed to cool to 40° C. Subsequently, the formulations were stored at room temperature until dosing.
Groups 1, 2 and 3: The test item was administered to the appropriate animals by oral gavage. The dose was given using a plastic feeding tube.
PK Sample Collection: From animals in Group 1 to 3 blood was collected according to the PK sample collection table (outlined in Table 3). Approximately 0.2 mL blood samples was taken from the jugular vein and collected into tubes containing K2 EDTA as anti-coagulant and stored on ice.
Sample Processing and Storage: Whole blood was processed to plasma by centrifugation (3000 g for 10 minutes at 5° C.) within 1 hour of collection. Plasma samples were transferred into labelled polypropylene tubes and stored at <−75° C. until shipment.

[3] = male, Wistar Han, in vivo, po, 15 mg/kg, 15 mg/kg (measured dose 15 mg/kg)
[4] = male, Wistar Han, in vivo, po, 45 mg/kg (measured dose 101 mg/kg)
[5] = male, Wistar Han, in vivo, po, 150 mg/kg (measured dose 204 mg/kg)

## C=C(C)[C@@H]1CCC(C)=C[C@H]1c1c(O)cc(-c2cnn(C)c2)cc1O [Compound 1, (1′R,2′R)-5′-methyl-4-(1-methyl-1H-pyrazol-4-yl)-2′-(prop-1-en-2-yl)-1′,2′,3′,4′-tetrahydro-[1,1′-biphenyl]-2,6-diol]
[1]; 2 mg/kg i.p.
  CC50 +/- SEM: 30.8 ± 1.0 mA
[1]; 20 mg/kg i.p.
  CC50 +/- SEM: 52.5 ± 1.3 mA
[1]; 200 mg/kg i.p.
  CC50 +/- SEM: 197.5 ± 20.4 mA
[1]; CC50, 2 mg/kg i.p.
  % change from vehicle: 27%
[1]; CC50, 20 mg/kg i.p.
  % change from vehicle: 116%
[1]; CC50, 200 mg/kg i.p.
  % change from vehicle: 712%
[2]; male, Wistar Han, in vivo, 15 mg/kg (measured dose 15 mg/kg)
  half-life: 3.3 h
[2]; male, Wistar Han, in vivo, 45 mg/kg (measured dose 101 mg/kg)
  half-life: 3.6 h
[2]; male, Wistar Han, in vivo, 150 mg/kg (measured dose 204 mg/kg)
  half-life: 4.3 h
[2]; [3]
  AUC(0-inf): 5330 ng·h/mL
  AUC(0-t): 4250 ng·h/mL
  Cmax: 1130 ng/mL
  Tmax: 1 h
[2]; male, Wistar Han, in vivo, po, 15 mg/kg, 15 mg/kg (measured dose 15 mg/kg), read-out: Bioavailability
  bioavailability: 69.6%
[2]; [4]
  AUC(0-inf): 48300 ng·h/mL
  AUC(0-t): 47900 ng·h/mL
  Cmax: 4010 ng/mL
  Tmax: 1 h
[2]; male, Wistar Han, in vivo, po, 45 mg/kg (measured dose 101 mg/kg), read-out: Bioavailability
  bioavailability: 96.4%
[2]; [5]
  AUC(0-inf): 105000 ng·h/mL
  AUC(0-t): 101000 ng·h/mL
  Cmax: 6730 ng/mL
  Tmax: 8 h
[2]; male, Wistar Han, in vivo, po, 150 mg/kg (measured dose 204 mg/kg), read-out: Bioavailability
  bioavailability: 107%
[2]; across concentrations (15, 45, 150 mg/kg)
  bioavailability: high

## CN1C(=O)CN=C(c2ccccc2)c2cc(Cl)ccc21 [Diazepam, diazepam, reference compound]
[1]; CC50, diazepam 2.5 mg/kg i.p.
  % change from vehicle: 223%
